Results as given in article PMC9191647 (Neuropharmacology, 2019).
Several values for one entry are separate records, joined by “and”; a condition that tells them apart may be missing. Identical values can stand only once. Like-named read-outs stand apart in the source and are kept apart here.

Experiments:
human 5-HT1A receptor = target: T1, human 5-HT1A receptor (Homo sapiens, UniProt P08908); assay: Competitive radioligand binding; details: for fold lower affinity than LSD for the 5-HT1A receptor: human 5-HT1A, relative to LSD
T1 sequence (P08908 1-422): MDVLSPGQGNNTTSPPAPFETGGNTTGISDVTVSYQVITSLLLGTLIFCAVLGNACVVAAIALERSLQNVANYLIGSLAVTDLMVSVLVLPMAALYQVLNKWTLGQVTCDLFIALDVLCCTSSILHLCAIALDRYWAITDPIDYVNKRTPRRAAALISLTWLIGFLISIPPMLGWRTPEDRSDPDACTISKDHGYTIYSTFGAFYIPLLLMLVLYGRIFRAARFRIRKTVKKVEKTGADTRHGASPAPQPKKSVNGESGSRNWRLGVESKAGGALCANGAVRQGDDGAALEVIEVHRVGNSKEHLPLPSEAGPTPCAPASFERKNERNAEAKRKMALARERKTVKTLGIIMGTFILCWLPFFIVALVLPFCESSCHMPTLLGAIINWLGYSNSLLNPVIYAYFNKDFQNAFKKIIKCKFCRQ

human 5-HT2A receptor = human 5-HT2A receptor (Homo sapiens, UniProt P28223); assay: Competitive radioligand binding
human 5-HT2C receptor = target: T2, human 5-HT2C receptor (Homo sapiens, UniProt P28335); assay: biochemical; format: binding
T2 sequence (P28335 33-458): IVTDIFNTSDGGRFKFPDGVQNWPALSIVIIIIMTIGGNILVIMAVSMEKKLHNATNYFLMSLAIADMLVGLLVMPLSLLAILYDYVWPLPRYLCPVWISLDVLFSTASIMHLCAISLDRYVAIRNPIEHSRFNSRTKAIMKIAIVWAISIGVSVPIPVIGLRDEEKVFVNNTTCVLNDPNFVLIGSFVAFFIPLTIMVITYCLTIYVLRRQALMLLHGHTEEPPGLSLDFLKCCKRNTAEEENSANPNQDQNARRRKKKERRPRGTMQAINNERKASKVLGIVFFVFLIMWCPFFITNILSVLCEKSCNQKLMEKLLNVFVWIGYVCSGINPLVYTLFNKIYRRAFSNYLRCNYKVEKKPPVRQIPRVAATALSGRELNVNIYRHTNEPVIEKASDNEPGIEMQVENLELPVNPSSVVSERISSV

human 5-HT2A (h5-HT2A) = human 5-HT2A (h5-HT2A) (Homo sapiens, UniProt P28223); assay: Gq-mediated calcium flux in Flp-In T-REx 293 cells; format: cell-based; details: for EC50: Ca^2+ flux; for Emax % 5-HT: percent 5-HT maximum response
mouse 5-HT2A (m5-HT2A) = mouse 5-HT2A (m5-HT2A) (Mus musculus, UniProt P35363); assay: Gq-mediated calcium flux in Flp-In T-REx 293 cells; format: cell-based; details: for Emax % 5-HT: percent 5-HT maximum response
human 5-HT2B (h5-HT2B) = human 5-HT2B (h5-HT2B) (Homo sapiens, UniProt P41595); assay: Gq-mediated calcium flux in Flp-In T-REx 293 cells; format: cell-based; details: for agonist activity: Ca^2+ flux
[1] = target: T3, human 5-HT2C INI (h5-HT2C) (Homo sapiens, UniProt P28335); format: cell-based
T3 sequence (P28335 33-458): T2 sequence (P28335 33-458)

male C57BL/6J mice [2] = details: HTR, cited from earlier work; for ED50 μg/kg (95% CI): hemitartrate (2:1) salt
human subjects = details: humans, cited from earlier work; for active doses: ref Rothlin (1957)
[3] = cited from earlier work
male C57BL/6J mice [4] = assay: Head-twitch response; format: in vivo, mouse; details: for HTR Counts (mean ± SEM): 30 min session; for HTR induced by ALD-52 after M100,907 pretreatment: 0.1 mg/kg M100,907 SC pretreatment, then 0.3 mg/kg ALD-52; for ED50: Mus musculus
mice = details: quantal scoring; ref Corne and Pickering (1967); cited from earlier work
5-HT1B = 5-HT1B (Homo sapiens, UniProt P28222); assay: Competitive radioligand binding
5-HT1D = 5-HT1D (Homo sapiens, UniProt P28221); assay: Competitive radioligand binding
5-HT2B = 5-HT2B (Homo sapiens, UniProt P41595); assay: Competitive radioligand binding
5-HT5a = 5-HT5a (Homo sapiens, UniProt P47898); assay: Competitive radioligand binding
5-HT6 = 5-HT6 (Homo sapiens, UniProt P50406); assay: Competitive radioligand binding
5-HT7A = 5-HT7A (Homo sapiens, UniProt P34969); assay: Competitive radioligand binding
α1A = α1A (Homo sapiens, UniProt P35348); assay: Competitive radioligand binding
α1B = α1B (Homo sapiens, UniProt P35368); assay: Competitive radioligand binding
α1D = α1D (Homo sapiens, UniProt P25100); assay: Competitive radioligand binding
α2A = α2A (Homo sapiens, UniProt P08913); assay: Competitive radioligand binding
α2B = α2B (Homo sapiens, UniProt P18089); assay: Competitive radioligand binding
α2C = α2C (Homo sapiens, UniProt P18825); assay: Competitive radioligand binding
β1 = β1 (Homo sapiens, UniProt P08588); assay: Competitive radioligand binding; set-up: species or system Human (heart)
β2 = β2 (Homo sapiens, UniProt P07550); assay: Competitive radioligand binding
β3 = β3 (Homo sapiens, UniProt P13945); assay: Competitive radioligand binding
D1 = D1 (Homo sapiens, UniProt P21728); assay: Competitive radioligand binding
D2 = D2 (Homo sapiens, UniProt P14416); assay: Competitive radioligand binding
D3 = D3 (Homo sapiens, UniProt P35462); assay: Competitive radioligand binding
D4 = D4 (Homo sapiens, UniProt P21917); assay: Competitive radioligand binding
D5 = D5 (Homo sapiens, UniProt P21918); assay: Competitive radioligand binding
H1 = H1 (Homo sapiens, UniProt P35367); assay: Competitive radioligand binding
H2 = H2 (Homo sapiens, UniProt P25021); assay: Competitive radioligand binding
H3 = H3 (Cavia porcellus, UniProt Q9JI35); assay: Competitive radioligand binding; set-up: species or system Guinea pig
H4 = H4 (Homo sapiens, UniProt Q9H3N8); assay: Competitive radioligand binding
5-HT2A = details: ref Johnson et al., 1994, cited from earlier work; for Ki: human 5-HT2A receptor vs. [^3H] ketanserin
[5] = ref Halberstadt and Geyer (2013)

human 5-HT2A receptor, sequence (P28223 whole entry): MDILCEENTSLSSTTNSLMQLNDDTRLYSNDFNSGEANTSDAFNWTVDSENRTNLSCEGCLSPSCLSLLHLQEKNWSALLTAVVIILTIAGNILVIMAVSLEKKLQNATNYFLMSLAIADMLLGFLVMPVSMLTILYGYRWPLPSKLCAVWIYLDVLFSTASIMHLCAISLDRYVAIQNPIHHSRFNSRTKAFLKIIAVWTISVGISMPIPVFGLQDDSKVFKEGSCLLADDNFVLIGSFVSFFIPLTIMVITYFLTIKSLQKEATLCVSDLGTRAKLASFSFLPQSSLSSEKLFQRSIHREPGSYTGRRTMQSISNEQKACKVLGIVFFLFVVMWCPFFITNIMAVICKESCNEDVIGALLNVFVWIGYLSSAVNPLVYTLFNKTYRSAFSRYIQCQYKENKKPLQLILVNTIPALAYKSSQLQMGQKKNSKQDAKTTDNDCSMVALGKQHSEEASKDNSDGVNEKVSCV
human 5-HT2A (h5-HT2A), sequence (P28223 whole entry): as above
mouse 5-HT2A (m5-HT2A), sequence (P35363 whole entry): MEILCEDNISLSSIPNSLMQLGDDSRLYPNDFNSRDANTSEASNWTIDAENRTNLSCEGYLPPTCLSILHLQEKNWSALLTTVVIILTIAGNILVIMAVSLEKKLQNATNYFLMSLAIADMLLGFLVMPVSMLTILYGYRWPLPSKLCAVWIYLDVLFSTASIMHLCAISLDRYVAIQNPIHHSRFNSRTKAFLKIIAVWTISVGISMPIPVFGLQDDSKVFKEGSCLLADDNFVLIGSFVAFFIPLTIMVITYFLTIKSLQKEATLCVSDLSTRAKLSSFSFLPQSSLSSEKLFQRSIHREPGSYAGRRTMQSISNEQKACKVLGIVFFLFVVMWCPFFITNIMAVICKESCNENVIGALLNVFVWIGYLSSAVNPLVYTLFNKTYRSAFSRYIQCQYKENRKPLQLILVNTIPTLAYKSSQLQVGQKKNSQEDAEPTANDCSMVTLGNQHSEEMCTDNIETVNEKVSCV
human 5-HT2B (h5-HT2B), sequence (P41595 whole entry): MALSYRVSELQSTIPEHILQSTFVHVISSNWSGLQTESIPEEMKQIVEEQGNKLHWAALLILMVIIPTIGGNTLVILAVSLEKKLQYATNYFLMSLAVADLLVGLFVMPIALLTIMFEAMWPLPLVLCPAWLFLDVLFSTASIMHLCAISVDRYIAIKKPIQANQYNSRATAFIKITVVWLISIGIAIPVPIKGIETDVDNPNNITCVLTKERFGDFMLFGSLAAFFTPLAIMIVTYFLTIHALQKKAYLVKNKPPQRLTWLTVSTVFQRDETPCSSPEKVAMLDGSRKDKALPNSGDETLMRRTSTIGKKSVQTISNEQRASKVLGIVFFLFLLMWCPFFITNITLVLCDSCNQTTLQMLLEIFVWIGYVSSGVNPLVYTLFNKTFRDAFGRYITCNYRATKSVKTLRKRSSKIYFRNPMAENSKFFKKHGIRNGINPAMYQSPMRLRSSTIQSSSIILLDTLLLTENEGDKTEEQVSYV
α2A, sequence (P08913 whole entry): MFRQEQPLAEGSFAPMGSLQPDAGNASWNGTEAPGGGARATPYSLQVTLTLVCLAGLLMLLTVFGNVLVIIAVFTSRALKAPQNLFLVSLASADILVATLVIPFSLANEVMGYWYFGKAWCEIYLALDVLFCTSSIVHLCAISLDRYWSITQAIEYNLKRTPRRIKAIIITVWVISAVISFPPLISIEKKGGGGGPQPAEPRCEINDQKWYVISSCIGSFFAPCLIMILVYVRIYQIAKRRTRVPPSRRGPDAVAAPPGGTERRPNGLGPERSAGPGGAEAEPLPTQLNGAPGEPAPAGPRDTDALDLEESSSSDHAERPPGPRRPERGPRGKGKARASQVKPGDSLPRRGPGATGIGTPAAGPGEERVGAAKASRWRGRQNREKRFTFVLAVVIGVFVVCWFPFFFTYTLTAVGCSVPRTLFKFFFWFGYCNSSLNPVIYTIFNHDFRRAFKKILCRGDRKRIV
β1, sequence (P08588 whole entry): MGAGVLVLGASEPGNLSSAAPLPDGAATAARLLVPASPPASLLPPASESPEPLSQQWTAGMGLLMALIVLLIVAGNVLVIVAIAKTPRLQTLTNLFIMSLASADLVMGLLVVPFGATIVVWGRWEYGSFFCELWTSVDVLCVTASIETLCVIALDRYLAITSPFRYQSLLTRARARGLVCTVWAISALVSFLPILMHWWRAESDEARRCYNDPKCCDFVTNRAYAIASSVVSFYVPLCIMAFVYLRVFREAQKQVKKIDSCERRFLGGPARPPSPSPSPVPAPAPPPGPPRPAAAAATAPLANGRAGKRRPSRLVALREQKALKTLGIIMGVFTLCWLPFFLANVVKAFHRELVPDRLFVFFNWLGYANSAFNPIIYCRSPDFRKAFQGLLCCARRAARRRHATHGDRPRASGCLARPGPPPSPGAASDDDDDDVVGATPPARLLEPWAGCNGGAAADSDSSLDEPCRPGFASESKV
5-HT5a, sequence (P47898 whole entry): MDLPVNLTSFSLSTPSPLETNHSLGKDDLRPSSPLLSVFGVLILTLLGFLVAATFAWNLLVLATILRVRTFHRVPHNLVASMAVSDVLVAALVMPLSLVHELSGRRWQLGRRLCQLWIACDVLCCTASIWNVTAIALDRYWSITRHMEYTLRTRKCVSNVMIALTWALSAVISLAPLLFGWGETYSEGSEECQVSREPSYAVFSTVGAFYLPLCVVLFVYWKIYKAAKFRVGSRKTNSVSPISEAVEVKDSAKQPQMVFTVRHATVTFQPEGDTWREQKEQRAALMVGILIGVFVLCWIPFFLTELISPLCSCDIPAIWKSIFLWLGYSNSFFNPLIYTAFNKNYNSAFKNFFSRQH
D1, sequence (P21728 whole entry): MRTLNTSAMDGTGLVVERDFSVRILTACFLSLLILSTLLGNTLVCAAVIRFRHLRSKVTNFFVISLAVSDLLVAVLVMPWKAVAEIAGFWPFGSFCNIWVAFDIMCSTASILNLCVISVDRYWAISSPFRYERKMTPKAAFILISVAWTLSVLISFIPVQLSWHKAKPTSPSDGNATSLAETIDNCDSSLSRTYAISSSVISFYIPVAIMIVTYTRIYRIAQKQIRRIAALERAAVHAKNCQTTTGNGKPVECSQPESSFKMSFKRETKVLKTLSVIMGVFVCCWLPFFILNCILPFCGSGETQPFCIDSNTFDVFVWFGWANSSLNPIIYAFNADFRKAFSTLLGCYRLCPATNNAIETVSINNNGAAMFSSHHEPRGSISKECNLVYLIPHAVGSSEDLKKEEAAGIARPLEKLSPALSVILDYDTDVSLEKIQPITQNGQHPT
D2, sequence (P14416 whole entry): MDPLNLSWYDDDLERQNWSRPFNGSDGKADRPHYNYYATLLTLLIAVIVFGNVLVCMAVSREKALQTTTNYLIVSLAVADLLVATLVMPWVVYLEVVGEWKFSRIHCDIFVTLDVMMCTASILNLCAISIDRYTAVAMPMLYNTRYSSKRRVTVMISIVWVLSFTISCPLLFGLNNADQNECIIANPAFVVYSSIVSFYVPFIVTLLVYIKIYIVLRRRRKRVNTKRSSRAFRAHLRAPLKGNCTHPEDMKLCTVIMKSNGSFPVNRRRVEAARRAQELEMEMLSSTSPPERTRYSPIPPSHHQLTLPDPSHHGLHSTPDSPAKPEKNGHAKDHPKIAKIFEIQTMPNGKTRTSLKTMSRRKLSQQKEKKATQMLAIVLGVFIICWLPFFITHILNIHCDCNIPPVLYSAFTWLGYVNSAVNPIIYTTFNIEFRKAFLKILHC
α1A, sequence (P35348 whole entry): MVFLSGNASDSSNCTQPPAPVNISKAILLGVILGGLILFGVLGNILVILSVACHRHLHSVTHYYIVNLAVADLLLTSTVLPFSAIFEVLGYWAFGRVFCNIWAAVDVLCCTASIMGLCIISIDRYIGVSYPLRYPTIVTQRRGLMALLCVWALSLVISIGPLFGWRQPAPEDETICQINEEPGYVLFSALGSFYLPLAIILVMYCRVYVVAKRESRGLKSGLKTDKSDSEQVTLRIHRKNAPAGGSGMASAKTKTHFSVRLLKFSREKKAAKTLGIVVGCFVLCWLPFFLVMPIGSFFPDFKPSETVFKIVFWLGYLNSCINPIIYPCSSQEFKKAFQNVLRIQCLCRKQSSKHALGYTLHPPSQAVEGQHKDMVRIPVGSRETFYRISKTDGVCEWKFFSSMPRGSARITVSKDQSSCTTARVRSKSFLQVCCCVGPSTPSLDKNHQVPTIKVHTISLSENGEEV
D4, sequence (P21917 whole entry): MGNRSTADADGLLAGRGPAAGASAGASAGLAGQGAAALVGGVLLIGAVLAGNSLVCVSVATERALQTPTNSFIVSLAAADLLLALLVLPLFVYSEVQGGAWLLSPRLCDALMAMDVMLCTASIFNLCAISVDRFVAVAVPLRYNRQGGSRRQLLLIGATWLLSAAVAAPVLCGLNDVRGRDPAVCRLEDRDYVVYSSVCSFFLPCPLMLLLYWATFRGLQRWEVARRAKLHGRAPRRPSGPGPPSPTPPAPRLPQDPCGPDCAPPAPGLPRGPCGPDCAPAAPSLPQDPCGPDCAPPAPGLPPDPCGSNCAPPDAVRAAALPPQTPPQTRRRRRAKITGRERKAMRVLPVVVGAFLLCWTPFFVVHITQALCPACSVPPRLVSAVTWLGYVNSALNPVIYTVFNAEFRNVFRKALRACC

## CCC(=O)n1cc2c3c(cccc31)C1=C[C@@H](C(=O)N(CC)CC)CN(C)[C@@H]1C2 [1P-LSD, 1-propanoyl-D-lysergic acid diethylamide]
Human 5-HT1A receptor
  Ki: 637 ± 97 nM
  fold lower affinity than LSD for the 5-HT1A receptor: 67 fold
Human 5-HT2A receptor
  Ki: 196 ± 19 nM
Human 5-HT2C receptor
  Ki: 13 ± 1.7 nM
Human 5-HT2A (h5-HT2A); EC50, nM
  EC50: 11 nM
Human 5-HT2A (h5-HT2A); pEC50 ± SEM
  EC50: 10.2 nM
Human 5-HT2A (h5-HT2A)
  Emax % 5-HT: 11 % 5-HT and 11 ± 1 % 5-HT
Mouse 5-HT2A (m5-HT2A)
  Emax % 5-HT: 23 ± 1 % 5-HT
Human 5-HT2B (h5-HT2B)
  agonist activity: no agonist activity
[1]; h5-HT2C, Ca^2+ flux
  agonist activity: no agonist activity
Male C57BL/6J mice [2]; ref Brandt et al. (2016)
  ED50 μg/kg (95% CI): 158.9 (65.0–388.8) μg/kg
  ED50 nmol/kg (95% CI): 349.6 (143.0–855.4) nmol/kg
  Molar potency (relative to LSD): one-third
Male C57BL/6J mice [2]; ref Brandt et al. (2016), listed as 1-Propanoyl-LSD
  Molar potency (relative to LSD): 0.38

## CCN(CC)C(=O)[C@@H]1C=C2c3cccc4[nH]cc(c34)C[C@H]2N(C)C1 [LSD, D-lysergic acid diethylamide, reference compound]
Human 5-HT2A (h5-HT2A)
  Emax % 5-HT: 94 % 5-HT and 94 ± 1 % 5-HT
Mouse 5-HT2A (m5-HT2A); Ca^2+ flux
  EC50: 4.25 nM
  pEC50 ± SEM: 8.37 ± 0.10
Mouse 5-HT2A (m5-HT2A)
  Emax % 5-HT: 86 ± 3 % 5-HT
Human 5-HT2B (h5-HT2B); percent 5-HT maximum response, N.A. = No Activity
  Emax % 5-HT: 78 ± 2 % 5-HT
Male C57BL/6J mice [2]; [5]
  ED50 μg/kg (95% CI): 52.9 (38.9–72.0) μg/kg
  ED50 nmol/kg (95% CI): 132.8 (97.6–180.7) nmol/kg
Human subjects
  active doses: 0.0005 to 0.001 mg/kg
[3]; humans, intravenous 2 μg/kg LSD, ref Aghajanian and Bing (1964)
  peak plasma level of LSD: 9.5 ng/mL
[3]; participants who had ingested 200 μg, ref Dolder et al., 2016
  LSD in plasma: 4.5 ng/mL

## CCN(CC)C(=O)[C@@H]1C=C2c3cccc4c3c(cn4C(C)=O)C[C@H]2N(C)C1 [ALD-52, 1-Acetyl-D-lysergic acid diethylamide]
Human 5-HT1A receptor
  Ki: 1050 nM
  fold lower affinity than LSD for the 5-HT1A receptor: 111 fold
Human 5-HT2A receptor
  Ki: 174 ± 43 nM
Human 5-HT2C receptor
  Ki: 10.2 ± 3.5 nM
Human 5-HT2A (h5-HT2A); EC50, nM
  EC50: 38 nM
Human 5-HT2A (h5-HT2A); pEC50 ± SEM
  EC50: 35.5 nM
Human 5-HT2A (h5-HT2A)
  Emax % 5-HT: 25 % 5-HT and 25 ± 2 % 5-HT
Mouse 5-HT2A (m5-HT2A); EC50, nM, Ca^2+ flux
  EC50: 12 nM
Mouse 5-HT2A (m5-HT2A); pEC50 ± SEM, Ca^2+ flux
  EC50: 11.5 nM
Mouse 5-HT2A (m5-HT2A)
  Emax % 5-HT: 29 ± 1 % 5-HT
Human 5-HT2B (h5-HT2B)
  agonist activity: no agonist activity
[1]; h5-HT2C, Ca^2+ flux
  agonist activity: no agonist activity
Male C57BL/6J mice [4]; 0.03 mg/kg IP
  HTR Counts (mean ± SEM): 8.4 ± 1.6
Male C57BL/6J mice [4]; 0.1 mg/kg IP
  HTR Counts (mean ± SEM): 12.6 ± 1.1
Male C57BL/6J mice [4]
  HTR induced by ALD-52 after M100,907 pretreatment: did not induce head twitches
Male C57BL/6J mice [4]; 0.3 mg/kg IP
  HTR Counts (mean ± SEM): 25.4 ± 3.2
Male C57BL/6J mice [4]; HTR
  Molar potency (relative to LSD): 0.45
Male C57BL/6J mice [4]; read-out: ED50 nmol/kg (95% CI)
  ED50: 297 nmol/kg
Male C57BL/6J mice [4]; read-out: ED50 μg/kg (95% CI)
  ED50: 131 µg/kg
Human subjects; ref Abramson (1959)
  potency relative to LSD: 91%
Human subjects; ref Isbell et al. (1959)
  potency relative to LSD: equipotent
Human subjects
  active doses: 0.0005 to 0.001 mg/kg
mice
  induction of head twitches in mice: does not induce head twitches

## COc1cccc([C@H](O)C2CCN(CCc3ccc(F)cc3)CC2)c1OC [M100,907, reference compound]
Male C57BL/6J mice [4]
  HTR induced by ALD-52 after M100,907 pretreatment: blocked

## CCCC(=O)n1cc2c3c(cccc31)C1=C[C@@H](C(=O)N(CC)CC)CN(C)[C@@H]1C2 [1B-LSD, 1-butanoyl-D-lysergic acid diethylamide]
Human 5-HT1A receptor
  Ki: 345 ± 118 nM
  fold lower affinity than LSD for the 5-HT1A receptor: 36 fold
Human 5-HT2A receptor
  Ki: 87.7 ± 9.4 nM
Human 5-HT2C receptor
  Ki: 20.8 nM
5-HT1B
  Ki: 1460 nM
5-HT1D
  Ki: 295 ± 77 nM
5-HT2B
  Ki: 3.5 ± 0.6 nM
5-HT5a
  Ki: 158 ± 42 nM
5-HT6
  Ki: 607 ± 112 nM
5-HT7A
  Ki: 554 ± 158 nM
α1A
  Ki: > 10000 nM
α1B
  Ki: > 10000 nM
α1D
  Ki: > 10000 nM
α2A
  Ki: 537 ± 85 nM
α2B
  Ki: 2660 nM
α2C
  Ki: 812 ± 267 nM
β1
  Ki: > 10000 nM
β2
  Ki: > 10000 nM
β3
  Ki: > 10000 nM
D1
  Ki: 1170 nM
D2
  Ki: > 10000 nM
D3
  Ki: 352 ± 64 nM
D4
  Ki: 2270 nM
D5
  Ki: > 10000 nM
H1
  Ki: > 10000 nM
H2
  Ki: 842 ± 201 nM
H3
  Ki: > 10000 nM
H4
  Ki: > 10000 nM
Human 5-HT2A (h5-HT2A); EC50, nM
  EC50: 85 nM
Human 5-HT2A (h5-HT2A)
  Emax % 5-HT: 23 % 5-HT and 23 ± 2 % 5-HT
Mouse 5-HT2A (m5-HT2A); EC50, nM, Ca^2+ flux
  EC50: 45 nM
Mouse 5-HT2A (m5-HT2A)
  Emax % 5-HT: 35 ± 2 % 5-HT
Human 5-HT2B (h5-HT2B)
  agonist activity: no agonist activity
[1]
  agonist activity: no agonist activity
Male C57BL/6J mice [4]; HTR in mice
  HTR potency as percent of the (molar) potency of LSD: ~ 14%
Male C57BL/6J mice [2]; ref Brandt et al. (2019)
  ED50 μg/kg (95% CI): 457.6 (334.9–625.5) μg/kg
  ED50 nmol/kg (95% CI): 976.7 (714.8–1335) nmol/kg
Male C57BL/6J mice [2]; ref Brandt et al. (2019), listed as 1-Butanoyl-LSD
  Molar potency (relative to LSD): 0.14

## CC(C)n1cc2c3c(cccc31)[C@H]1C[C@@H](C(=O)NC3CCCCC3)CN(C)[C@@H]1C2 [amersergide]
5-HT2A
  Ki: 16.2 nM
5-HT2A; human 5-HT2A receptor
  fold lower affinity than LY193525: ~ 20 fold

## CN1C[C@H](C(=O)NC2CCCCC2)C[C@@H]2c3cccc4[nH]cc(c34)C[C@H]21 [LY193525]
5-HT2A
  Ki: 0.73 nM
